Our source for the herbicidal activity values is patent US9549558B2, “Herbicidal azines” (BASF SE, priority 2012, dated 2017).

What all share (format): in vivo
Experiment [1] deals with POLCO (Polygonum convolvulus). Briefly: greenhouse pre-emergence herbicidal test. The procedure, abridged:
(§1)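 Seeds were sown in loamy sand with about 3.0% humus, and compounds suspended or emulsified in water were sprayed right after sowing. Pots were kept under transparent hoods until rooting at 10-25° C. or 20-35° C. depending on species, and damage was scored 0-100 after 2 to 4 weeks.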

Experiment [2] has as its system SETVI (Setaria viridis). Kind of experiment: greenhouse pre-emergence herbicidal test. The procedure, abridged: as §1
The test system of experiment [3] is APESV (Apera spica-venti). Briefly: greenhouse pre-emergence herbicidal test. In outline: as §1
In the next experiment the test system is THLAR (Thlaspi arvense). Briefly: greenhouse pre-emergence herbicidal test. Particulars: 0.125 kg/ha. In outline:
as §1

In experiment [4] the test system is MATIN (Matricaria maritima). Briefly: greenhouse pre-emergence herbicidal test. The conditions noted are these: 2000 g/ha. The procedure, abridged: as §1
A further experiment concerns POAAN (Poa annua). Kind of experiment: greenhouse pre-emergence herbicidal test. The procedure, abridged:
as §1

In experiment [5] the test system is ECHCG (Echinocloa crus-galli). Briefly: greenhouse pre-emergence herbicidal test. Particulars: 32 g/ha. In outline:
as §1

Experiment [6] concerns AMARE (Amaranthus retroflexus). Briefly: greenhouse pre-emergence herbicidal test. The conditions noted are these: 1000 g/ha. An excerpt:
The seeds of the test plants were sown separately for each species. For the pre-emergence treatment, the active ingredients, which had been suspended or emulsified in water, were applied directly after sowing by means of finely distributing nozzles. The containers were irrigated gently to promote germination and growth and subsequently covered with transparent plastic hoods until the plants had rooted. This cover caused uniform germination of the test plants, unless this had been impaired by the active ingredients. Depending on the species, the plants were kept at 10-25° C. or 20-35° C., respectively. The test period extended over 2 to 4 weeks. During this time, the plants were tended, and their response to the individual treatments was evaluated. […] A moderate herbicidal activity is given at values of at least 60, a good herbicidal activity is given at values of at least 70, and a very good herbicidal activity is given at values of at least 85. The plants used in the greenhouse experiments were of the following species: [table]

A further experiment concerns VIOAR (Viola arvensis). Kind of experiment: greenhouse pre-emergence herbicidal test. The procedure, abridged:
as §1

Experiment [7] concerns SETVI (Setaria viridis). Kind of experiment: greenhouse post-emergence herbicidal test. The conditions noted are these: 62 g/ha. In outline:
(§2)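 Post-emergence greenhouse test on plants grown to 3–15 cm in loamy sand (~3.0% humus), sprayed with active ingredient suspended or emulsified in water. Plants held at 10-25 °C or 20-35 °C by species for 2 to 4 weeks, then damage scored visually 0–100 (100 = complete destruction of aerial parts, 0 = no damage).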

Experiment [8] deals with AMARE (Amaranthus retroflexus). Briefly: greenhouse post-emergence herbicidal test. Particulars: 62 g/ha. The procedure, abridged: as §2
For a further experiment, the system named is STEME (Stellaria media). Kind of experiment: greenhouse pre-emergence herbicidal test. The conditions noted are these: 500 g/ha. In outline:
as §1

For the molecule `CC(C)(F)c1nc(N)nc(Nc2c(F)cccc2F)n1` [Example 24], the herbicidal activity result (in [1] (0.125 kg/ha); in the experiment on SETVI (Setaria viridis) [2] (0.125 kg/ha)) was “very good (a very good herbicidal activity is given at values of at least 85)” in each case.
For the molecule `CC(C)(F)c1nc(N)nc(Nc2ccc([N+](=O)[O-])cc2F)n1` [Example 39], the herbicidal activity entry in experiment [3] (0.031 kg/ha) was “moderate (A moderate herbicidal activity is given at values of at least 60)”.
With `CC(C)(F)c1nc(N)nc(Nc2cc(C(F)(F)F)cc(C(F)(F)F)c2)n1` [Example 46], the herbicidal activity entry in the experiment with THLAR (Thlaspi arvense) was “very good (a very good herbicidal activity is given at values of at least 85)”.
For the molecule `CC(O)c1nc(N)nc(Nc2c(F)c(F)c(F)c(F)c2F)n1` (stereo not shown) [Example 69], the herbicidal activity result (in experiment [4]; in the experiment on POAAN (Poa annua) (2000 g/ha)) was “very good (a very good herbicidal activity is given at values of at least 85)” in each case.
For the molecule `CC(C)(Cl)c1nc(N)nc(Nc2c(F)cccc2F)n1` [Example 78], the herbicidal activity entry in experiment [3] (125 g/ha) is on record as “good (a good herbicidal activity is given at values of at least 70)”.
For the molecule `CCC(C)(F)c1nc(N)nc(Nc2c(F)ccc(F)c2F)n1` (stereo not shown) [Example 114], the herbicidal activity entry (in experiment [5]; in [1] (32 g/ha); in the experiment on SETVI (Setaria viridis) [2] (32 g/ha)) was “very good (a very good herbicidal activity is given at values of at least 85)” in each case.
As for `COc1cc(F)c(Nc2nc(N)nc(C(C)(C)F)n2)c(F)c1` [Example 116], the herbicidal activity result in experiment [3] (1000 g/ha) is on record as “very good (a very good herbicidal activity is given at values of at least 85)”; in [6], “good (a good herbicidal activity is given at values of at least 70)”.
As to `CC(C)(F)c1nc(N)nc(Nc2c(F)c(F)c(Cl)c(F)c2F)n1` [Example 128], the herbicidal activity result in the experiment on VIOAR (Viola arvensis) (125 g/ha) is reported as “good (a good herbicidal activity is given at values of at least 70)”; in the experiment on POAAN (Poa annua) (125 g/ha), “very good (a very good herbicidal activity is given at values of at least 85)”.
Regarding `Nc1nc(Nc2c(F)c(F)c(F)c(F)c2F)nc(C2(F)C(F)(F)C(F)(F)C(F)(F)C(F)(F)C2(F)F)n1` [Example 175], in experiment [3] (494 g/ha), the herbicidal activity entry was “good (a good herbicidal activity is given at values of at least 70)”.
Take `CC(C)(C)C(=O)N(c1nc(N)nc(C(C)(C)C)n1)c1c(F)c(F)c(F)c(F)c1F` [Example 283]: the herbicidal activity result in the experiment on SETVI (Setaria viridis) [7] is “good (a good herbicidal activity is given at values of at least 70)”; in experiment [8] it was “very good (a very good herbicidal activity is given at values of at least 85)”.
`CC(=O)N(c1nc(N)nc(C(C)(C)F)n1)c1c(F)c(F)c(F)c(F)c1F` [Example 291]: the herbicidal activity entry (in experiment [4]; with POAAN (Poa annua) (2000 g/ha)) was “very good (a very good herbicidal activity is given at values of at least 85)” throughout.
In the case of `COCN(c1nc(N)nc(C(C)(C)F)n1)c1c(F)c(F)c(F)c(F)c1F` [Example 305], the herbicidal activity result (in the experiment on VIOAR (Viola arvensis) (500 g/ha); in [1] (500 g/ha); in the experiment with STEME (Stellaria media)) was “very good (a very good herbicidal activity is given at values of at least 85)” each time.
